From patent publication US20150010928A1, “MEANS AND METHODS FOR ASSESSING AN ENDOCRINE DISEASE OR DISORDER” (priority 2012, published 2015)
Marks after values point to notes of the source that are not given here.

Test system: female rats
Assay: Plasma metabolite profiling (GC-MS, LC-MS, SPE-LC-MS) in female rats dosed once daily over 28 days (OECD 407)
Format: in vivo, rat
Details: high dose
How it was run: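 Metabolites were measured by GC-MS (derivatised) and reversed-phase LC-MS, with steroids by online SPE-LC-MS, in plasma drawn from fasted rats on days 7, 14 and 28 of once-daily dosing (5/sex/group). Values are ratios versus sex-matched untreated controls, normalized to pool samples, with Welch-test p-values.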

## C[C@]12CCC(=O)C=C1CC[C@@H]1[C@@H]2CC[C@@]2(C)[C@H]1CC[C@]2(C)O [17-alpha-Methyltestosterone]
f7, female rats, Table 15a
  3-Hydroxybutyrate: 1.5*
  DAG (C18:1,C18:2): 3.01 *
  Glutamate: 1.56 *
  Glycine: 1.28 *
  Phosphatidylcholine (C16:0,C20:5): 1.22 *
  TAG (C16:0,C16:1): 3.85 *
  TAG (C16:0,C18:1,C18:3): 8.68 *
  TAG (C16:0,C18:2): 4.63 *
  TAG (C18:1,C18:2): 5.83 *
  TAG (C18:2,C18:2): 4.67 *
  TAG (C18:3, C18:2, C18:1): 6.36*
  TAG (DAG-Fragment): 5.82 *
  TAG No 059: 3.27 *
  Threonic acid: 1.65 *
  trans-4-Hydroxyproline: 1.4 *
f7, female rats, Table 15b
  Arginine: 0.69 *
  Campesterol: 0.65 *
  Ceramide (d18:1,C24:0): 0.79 *
  Lactate: 0.47 *
  Lysine: 0.49 *
  Metanephrine: 0.78 *
  Normetanephrine: 0.61 *
  Phosphatidylcholine (C16:0,C20:5): 1.22
  Phosphatidylcholine (C16:0,C22:6): 0.86 *
  Phosphatidylcholine (C18:0, C20:3): 0.69 *
  Phosphatidylcholine (C18:0,C18:1): 0.78 *
  Pyruvate: 0.52 *
  Sphingomyelin (d18:1,C23:0): 0.56 *
  Sphingomyelin (d18:1,C24:0): 0.67 *
  Urea: 0.72 *
f14, female rats, Table 15a
  3-Hydroxybutyrate: 2.03 *
  DAG (C18:1,C18:2): 3.17 *
  Glutamate: 1.43 *
  Glycine: 1.15 *
  Phosphatidylcholine (C16:0,C20:5): 1.15 *
  TAG (C16:0,C16:1): 2.59 *
  TAG (C16:0,C18:1,C18:3): 7.54 *
  TAG (C16:0,C18:2): 4.63 *
  TAG (C18:1,C18:2): 4.5 *
  TAG (C18:2,C18:2): 5.09 *
  TAG (C18:3, C18:2, C18:1): 5.29 *
  TAG (DAG-Fragment): 5.43 *
  TAG No 059: 4.08 *
  Threonic acid: 2.84 *
  trans-4-Hydroxyproline: 1.56 *
f14, female rats, Table 15b
  Arginine: 0.67 *
  Campesterol: 0.62 *
  Ceramide (d18:1,C24:0): 0.7 *
  Lactate: 0.34 *
  Lysine: 0.49 *
  Metanephrine: 0.66 *
  Normetanephrine: 0.65 *
  Phosphatidylcholine (C16:0,C20:5): 1.15
  Phosphatidylcholine (C16:0,C22:6): 0.78 *
  Phosphatidylcholine (C18:0, C20:3): 0.76 *
  Phosphatidylcholine (C18:0,C18:1): 0.94 *
  Pyruvate: 0.35 *
  Sphingomyelin (d18:1,C23:0): 0.52 *
  Sphingomyelin (d18:1,C24:0): 0.6 *
  Urea: 0.63 *
f28, female rats, Table 15a
  3-Hydroxybutyrate: 1.49 *
  DAG (C18:1,C18:2): 2.97 *
  Glutamate: 1.58 *
  Glycine: 1.29 *
  Phosphatidylcholine (C16:0,C20:5): 1.17*
  TAG (C16:0,C16:1): 2.04 *
  TAG (C16:0,C18:1,C18:3): 9.21*
  TAG (C16:0,C18:2): 5.09 *
  TAG (C18:1,C18:2): 5.32 *
  TAG (C18:2,C18:2): 8.15 *
  TAG (C18:3, C18:2, C18:1): 7.3*
  TAG (DAG-Fragment): 6.9 *
  TAG No 059: 5.2 *
  Threonic acid: 2.29 *
  trans-4-Hydroxyproline: 1.61 *
f28, female rats, Table 15b
  Arginine: 0.59 *
  Campesterol: 0.66 *
  Ceramide (d18:1,C24:0): 0.52 *
  Lactate: 0.52 *
  Lysine: 0.52 *
  Metanephrine: 0.81 *
  Normetanephrine: 0.66 *
  Phosphatidylcholine (C16:0,C20:5): 1.17
  Phosphatidylcholine (C16:0,C22:6): 0.79 *
  Phosphatidylcholine (C18:0, C20:3): 0.68 *
  Phosphatidylcholine (C18:0,C18:1): 0.81 *
  Pyruvate: 0.4 *
  Sphingomyelin (d18:1,C23:0): 0.42 *
  Sphingomyelin (d18:1,C24:0): 0.52 *
  Urea: 0.8*

## C[C@@H]1CC2=CC(=O)CC[C@@H]2[C@H]2CC[C@@]3(C)[C@@H](CC[C@]3(C)O)[C@@H]21 [Mibolerone]
f7, female rats, Table 15a
  3-Hydroxybutyrate: 1.36 *
  DAG (C18:1,C18:2): 0.43
  Glutamate: 1.66 *
  Glycine: 1.19 *
  Phosphatidylcholine (C16:0,C20:5): 0.56
  TAG (C16:0,C16:1): 2.26
  TAG (C16:0,C18:1,C18:3): 1.22
  TAG (C16:0,C18:2): 0.87
  TAG (C18:1,C18:2): 0.77
  TAG (C18:2,C18:2): 0.9
  TAG (C18:3, C18:2, C18:1): 0.99
  TAG (DAG-Fragment): 0.95
  TAG No 059: 1.08 *
  Threonic acid: 1.15 *
  trans-4-Hydroxyproline: 1.8 *
f7, female rats, Table 15b
  Androstenedione: 0.14 *
  Arginine: 0.85 *
  Campesterol: 0.16
  Ceramide (d18:1,C24:0): 0.12 *
  Lactate: 0.62 *
  Lysine: 0.68 *
  Metanephrine: 0.62 *
  Normetanephrine: 1.15
  Phosphatidylcholine (C16:0,C20:5): 0.56 *
  Phosphatidylcholine (C16:0,C22:6): 0.18 *
  Phosphatidylcholine (C18:0, C20:3): 0.2 *
  Phosphatidylcholine (C18:0,C18:1): 0.21 *
  Progesterone: 0.62
  Pyruvate: 0.75 *
  Sphingomyelin (d18:1,C23:0): 0.06 *
  Sphingomyelin (d18:1,C24:0): 0.11 *
  Urea: 0.65 *
f14, female rats, Table 15a
  3-Hydroxybutyrate: 1.73 *
  DAG (C18:1,C18:2): 2.88 *
  Glutamate: 1.67 *
  Glycine: 1.22 *
  Phosphatidylcholine (C16:0,C20:5): 1.54 *
  TAG (C16:0,C16:1): 12.22 *
  TAG (C16:0,C18:1,C18:3): 8.88 *
  TAG (C16:0,C18:2): 6.82 *
  TAG (C18:1,C18:2): 8.37 *
  TAG (C18:2,C18:2): 6.69 *
  TAG (C18:3, C18:2, C18:1): 5.98 *
  TAG (DAG-Fragment): 7.86 *
  TAG No 059: 4.67 *
  Threonic acid: 1.18 *
  trans-4-Hydroxyproline: 2.44 *
f14, female rats, Table 15b
  Androstenedione: 0.11 *
  Arginine: 0.98 *
  Campesterol: 0.89
  Ceramide (d18:1,C24:0): 2.02 *
  Lactate: 0.74 *
  Lysine: 0.63 *
  Metanephrine: 0.72 *
  Normetanephrine: 0.66 *
  Phosphatidylcholine (C16:0,C20:5): 1.54
  Phosphatidylcholine (C16:0,C22:6): 0.84 *
  Phosphatidylcholine (C18:0, C20:3): 0.98
  Phosphatidylcholine (C18:0,C18:1): 0.93
  Progesterone: 0.13 *
  Pyruvate: 0.83 *
  Sphingomyelin (d18:1,C23:0): 1.26
  Sphingomyelin (d18:1,C24:0): 1.33 *
  Urea: 0.48 *
f28, female rats, Table 15a
  3-Hydroxybutyrate: 1.06
  DAG (C18:1,C18:2): 2.27 *
  Glutamate: 1.73 *
  Glycine: 1.18 *
  Phosphatidylcholine (C16:0,C20:5): 1.32 *
  TAG (C16:0,C16:1): 5.83 *
  TAG (C16:0,C18:1,C18:3): 6.23 *
  TAG (C16:0,C18:2): 4.89 *
  TAG (C18:1,C18:2): 4.95 *
  TAG (C18:2,C18:2): 4.92 *
  TAG (C18:3, C18:2, C18:1): 4.74 *
  TAG (DAG-Fragment): 5.74 *
  TAG No 059: 3.5 *
  Threonic acid: 1.94 *
  trans-4-Hydroxyproline: 2 *
f28, female rats, Table 15b
  Androstenedione: 0.07 *
  Arginine: 0.83 *
  Campesterol: 0.54 *
  Ceramide (d18:1,C24:0): 1.53 *
  Lactate: 0.73 *
  Lysine: 0.57 *
  Metanephrine: 0.66 *
  Normetanephrine: 0.78 *
  Phosphatidylcholine (C16:0,C20:5): 1.32
  Phosphatidylcholine (C16:0,C22:6): 0.74 *
  Phosphatidylcholine (C18:0, C20:3): 0.91 *
  Phosphatidylcholine (C18:0,C18:1): 0.86
  Progesterone: 0.06 *
  Pyruvate: 0.65 *
  Sphingomyelin (d18:1,C23:0): 0.63 *
  Sphingomyelin (d18:1,C24:0): 1.05
  Urea: 0.88 *
